Where two headings read alike, the source gives them in different places.

One test concerns the target human P2X2/3 receptor (Homo sapiens (Human), UniProt P56373+Q9UBL9). As to the kind of experiment: Intracellular calcium measurement (FLIPR, Fluo-4) of antagonist activity at human P2X2/3 receptors. The class given is cell-based. To be noted: human P2X2/3, FLIPR calcium assay, agonist α,β-Me-ATP; read-out: hP2X2/3 IC50. The essentials:
(§1)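 Antagonism quantified from peak calcium fluorescence (Fluo-4, FLIPR, 90 sec read) evoked by EC80 α,β-Me-ATP, after a 30 min, 37° C. compound pretreatment in 1% DMSO. Human P2X3- or P2X2/3-expressing cells used; triplicate means fitted for IC50, percent maximal inhibition and Hill coefficient.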
A general note: Calcium flux is commonly read through the fluorescence of an indicator in the cells.

Another test concerns the target human P2X3 receptor (Homo sapiens (Human), UniProt P56373). Kind of test: Intracellular calcium measurement (FLIPR, Fluo-4) of antagonist activity at human P2X3 receptors. It is filed as cell-based. To be noted: read-out: hP2X3 IC50. In outline: as §1
Where [1] appears, read: human P2X3, FLIPR calcium assay, agonist α,β-Me-ATP.

human P2X2/3 receptor, sequence (P56373 whole entry): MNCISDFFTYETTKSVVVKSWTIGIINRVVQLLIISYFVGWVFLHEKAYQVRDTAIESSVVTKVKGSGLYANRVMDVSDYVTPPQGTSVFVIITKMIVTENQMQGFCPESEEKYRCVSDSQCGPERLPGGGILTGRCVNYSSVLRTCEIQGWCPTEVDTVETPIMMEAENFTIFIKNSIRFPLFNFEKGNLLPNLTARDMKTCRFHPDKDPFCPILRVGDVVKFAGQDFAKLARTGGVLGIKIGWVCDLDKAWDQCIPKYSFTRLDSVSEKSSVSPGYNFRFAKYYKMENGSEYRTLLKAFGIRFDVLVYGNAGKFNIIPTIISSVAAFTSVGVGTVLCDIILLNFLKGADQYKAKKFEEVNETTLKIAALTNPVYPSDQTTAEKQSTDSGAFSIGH
human P2X2/3 receptor, sequence (Q9UBL9 whole entry): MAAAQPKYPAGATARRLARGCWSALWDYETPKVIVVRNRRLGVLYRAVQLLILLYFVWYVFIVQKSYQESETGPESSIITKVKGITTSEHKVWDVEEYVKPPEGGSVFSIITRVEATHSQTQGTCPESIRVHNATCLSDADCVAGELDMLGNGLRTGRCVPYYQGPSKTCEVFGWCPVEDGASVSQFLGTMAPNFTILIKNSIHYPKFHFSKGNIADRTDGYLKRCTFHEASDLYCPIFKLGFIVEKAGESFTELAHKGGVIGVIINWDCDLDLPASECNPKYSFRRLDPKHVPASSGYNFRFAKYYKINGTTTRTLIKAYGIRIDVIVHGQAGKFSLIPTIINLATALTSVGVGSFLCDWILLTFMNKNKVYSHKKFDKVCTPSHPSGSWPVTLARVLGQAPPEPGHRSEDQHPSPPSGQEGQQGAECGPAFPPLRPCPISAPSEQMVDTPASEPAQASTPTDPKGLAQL
human P2X3 receptor, sequence (P56373 whole entry): as the sequence (P56373 whole entry) above

Turning to `Cc1cnc([C@@H](C)NC(=O)c2cc(OC[C@H]3CCOC3)cc(-c3ncc(C)s3)c2)cn1` [Example 68, N-[(1R)-1-(5-Methylpyrazin-2-yl)ethyl]-3-(5-methyl-1,3-thiazol-2-yl)-5-[(3S)-tetrahydrofuran-3-ylmethoxy]benzamide], the IC50 on human P2X2/3 receptor stood at 1620 nM; at human P2X3 receptor (setting [1]), 44 nM.

Turning to `Cc1ccc([C@@H](C)NC(=O)c2cc(OC3CCOCC3)cc(-c3ncc(C)s3)c2)cn1` [Example 91, N-[(1R)-1-(6-Methylpyridin-3-yl)ethyl]-3-(5-methyl-1,3-thiazol-2-yl)-5-(tetrahydro-2H-pyran-4-yloxy)benzamide], the results for the IC50 on human P2X2/3 receptor and on human P2X3 receptor (setting [1]) were 133 nM and 19 nM, respectively.

`Cc1cnc(-c2cc(OC[C@H]3CN(C)C(=O)O3)cc(C(=O)N[C@H](C)c3cnc(C(F)(F)F)nc3)c2)s1` [Example 398, 3-{[(5R)-3-methyl-2-oxo-1,3-oxazolidin-5-yl]methoxy}-5-(5-methyl-1,3-thiazol-2-yl)-N-{(1R)-1-[2-(trifluoromethyl)pyrimidin-5-yl]ethyl}benzamide]: the values for the IC50 on human P2X2/3 receptor and at human P2X3 receptor (setting [1]) were 1800 nM and 17 nM, respectively.

For the compound `Cc1cnc(-c2cc(OC[C@H]3CN(C)CCO3)cc(C(=O)N[C@H](C)c3ccc(C(F)(F)F)nc3)c2)s1` [Example 366, 3-{[(2R)-4-methylmorpholin-2-yl]methoxyl}-5-(5-methyl-1,3-thiazol-2-yl)-N-{(1R)-1-[6-(trifluoromethyl)pyridin-3-yl]ethyl}benzamide], the IC50 at human P2X2/3 receptor worked out at 977 nM; at human P2X3 receptor (setting [1]) it was 18 nM.

On to `Cc1ccc([C@@H](C)NC(=O)c2cc(OC[C@@H]3CCCO3)cc(-c3ncc(C)s3)c2)nn1` [Example 59, N-[(1R)-1-(6-Methylpyridazin-3-yl)ethyl]-3-(5-methyl-1,3-thiazol-2-yl)-5-[(2S)-tetrahydrofuran-2-ylmethoxy]benzamide], for which the IC50 at human P2X2/3 receptor amounted to 507 nM; on human P2X3 receptor (setting [1]), 13 nM.

In the case of `Cc1cnc(-c2cc(OC[C@H]3CN(C(C)C)CCO3)cc(C(=O)N[C@H](C)c3cnc(C(F)(F)F)nc3)c2)s1` [Example 381, 3-(5-methyl-1,3-thiazol-2-yl)-5-{[(2R)-4-(propan-2-yl)morpholin-2-yl]methoxy}-N-{(1R)-1-[2-(trifluoromethyl)pyrimidin-5-yl]ethyl}benzamide], the IC50 on human P2X2/3 receptor came out at 954 nM; at human P2X3 receptor (setting [1]) it was 16 nM.

Regarding `Cc1cnc(-c2cc(OC3CCNC(C(F)(F)F)C3)cc(C(=O)N[C@H](C)c3cnc(C(F)(F)F)nc3)c2)s1` (single isomer, unassigned) [Example 208], the IC50 on human P2X2/3 receptor was 89 nM; at human P2X3 receptor (setting [1]), 2 nM.

`Cc1cnc(-c2cc(OC[C@@H]3CCCO3)cc(C(=O)N[C@H](C)c3ccc(C(F)(F)F)nn3)c2)s1` [Example 60, 3-(5-Methyl-1,3-thiazol-2-yl)-5-[(2S)-tetrahydrofuran-2-ylmethoxy]-N-{(1R)-1-[6-(trifluoromethyl)pyridazin-3-yl]ethyl}benzamide]: the IC50 stood at 578 nM at human P2X2/3 receptor and 11 nM on human P2X3 receptor (setting [1]).

With `Cc1cnc(-c2cc(O[C@@H]3CCOC3)cc(C(=O)N[C@H](C)c3ccc(Cl)cn3)c2)s1` [Example 15, N-[(1R)-1-(5-chloropyridin-2-yl)ethyl]-3-(5-methyl-1,3-thiazol-2-yl)-5-[(3R)-tetrahydrofuran-3-yloxy]benzamide], the IC50 at human P2X2/3 receptor came to 147 nM; at human P2X3 receptor (setting [1]), 6 nM.

Turning to `Cc1ccc([C@@H](C)NC(=O)c2cc(Oc3nccs3)cc(-c3ncc(C)s3)c2)nn1` [Example 113, N-[(1R)-1-(6-Methylpyridazin-3-yl)ethyl]-3-(5-methyl-1,3-thiazol-2-yl)-5-(1,3-thiazol-2-yloxy)benzamide], the IC50 at human P2X2/3 receptor was found to be 387 nM; on human P2X3 receptor (setting [1]), 43 nM.

Take `Cc1cnc([C@@H](C)NC(=O)c2cc(OC[C@H]3CCCO3)cc(-c3ncc(C)s3)c2)cn1` [Example 64, N-[(1R)-1-(5-methylpyrazin-2-yl)ethyl]-3-(5-methyl-1,3-thiazol-2-yl)-5-[(2R)-tetrahydrofuran-2-ylmethoxy]benzamide]: the IC50 at human P2X2/3 receptor is 984 nM; at human P2X3 receptor (setting [1]), 53 nM.

On to `Cc1cnc(-c2cc(OC3CN(C)C3)cc(C(=O)N[C@H](C)c3ccc(C(F)(F)F)nn3)c2)s1` [Example 211, 3-[(1-methylazetidin-3-yl)oxy]-5-(5-methyl-1,3-thiazol-2-yl)-N-{(1R)-1-[6-(trifluoromethyl)pyridazin-3-yl]ethyl} benzamide], for which the IC50 was no less than 10000 nM on human P2X2/3 receptor and 395 nM on human P2X3 receptor (setting [1]).

Take `Cc1cnc(-c2cc(OC[C@@H]3CNC(=O)CO3)cc(C(=O)N[C@H](C)c3cnc(C(F)(F)F)nc3)c2)s1` [Example 400, 3-(5-methyl-1,3-thiazol-2-yl)-5-{[(2S)-5-oxomorpholin-2-yl]methoxy}-N-{(1R)-1-[2-(trifluoromethyl)pyrimidin-5-yl]ethyl}benzamide]: the IC50 on human P2X2/3 receptor turned out to be 1480 nM; on human P2X3 receptor (setting [1]) it was 59 nM.

With `Cc1cnc(-c2cc(OC[C@H]3COCC(=O)N3)cc(C(=O)N[C@H](C)c3cnc(C(F)(F)F)nc3)c2)s1` [Example 396, 3-(5-methyl-1,3-thiazol-2-yl)-5-{[(3R)-5-oxomorpholin-3-yl]methoxy}-N-{(1R)-1-[2-(trifluoromethyl)pyrimidin-5-yl]ethyl}benzamide], the IC50 at human P2X2/3 receptor is 1800 nM; at human P2X3 receptor (setting [1]), 22 nM.

With `Cc1cnc(-c2cc(O[C@@H]3CCOC3)cc(C(=O)N[C@H](C)c3ccc(C(F)F)nc3)c2)s1` [Example 171, N-{(1R)-1-[6-(difluoromethyl)pyridin-3-yl]ethyl}-3-(5-methyl-1,3-thiazol-2-yl)-5-[(3R)-tetrahydrofuran-3-yloxy]benzamide], the IC50 at human P2X2/3 receptor was 573 nM; on human P2X3 receptor (setting [1]), 26 nM.

Take `CCc1cnc(-c2cc(OC[C@H]3CNCCO3)cc(C(=O)N[C@H](C)c3ccc(C(F)(F)F)nn3)c2)s1` [Example 415, 3-(5-ethyl-1,3-thiazol-2-yl)-5-[(2R)-morpholin-2-ylmethoxy]-N-{(1R)-1-[6-(trifluoromethyl)pyridazin-3-yl]ethyl}benzamide]: the figures for the IC50 at human P2X2/3 receptor and at human P2X3 receptor (setting [1]) were 2180 nM and 10 nM, respectively.

In the case of `Cc1cnc(-c2cc(O[C@@H]3CC[C@H]4[C@H]3OCCN4C)cc(C(=O)N[C@H](C)c3cnc(C(F)(F)F)nc3)c2)s1` [Example 218, 3-{[(4aS,7R, 7aR)-4-methyloctahydro-cyclopenta [b][1,4]oxazin-7-yl]oxy}-5-(5-methyl-1,3-thiazol-2-yl)-N-{(1R)-1-[2-(trifluoromethyl)pyrimidin-5-yl]ethyl} benzamide], the IC50 at human P2X2/3 receptor was 281 nM; on human P2X3 receptor (setting [1]) it was 7 nM.

As to `Cc1cnc(-c2cc(OCC3(N(C)C)CC3)cc(C(=O)N[C@H](C)c3cnc(C(F)(F)F)nc3)c2)s1` [Example 213, 3-{[1-(dimethylamino)cyclopropyl]methoxy}-5-(5-methyl-1,3-thiazol-2-yl)-N-{(1R)-1-[2-(trifluoromethyl)pyrimidin-5-yl]ethyl} benzamide], the IC50 on human P2X2/3 receptor was found to be 81 nM; on human P2X3 receptor (setting [1]), 5 nM.

For the compound `C[C@@H](NC(=O)c1cc(OC[C@@H]2CCCO2)cc(-c2ncc(C3CCC3)s2)c1)c1cnc(C(F)(F)F)nc1` [Example 287, 3-(5-cyclobutyl-1,3-thiazol-2-yl)-5-[(2S)-tetrahydrofuran-2-ylmethoxy]-N-{(1R)-1-[2-(trifluoromethyl)pyrimidin-5-yl]ethyl}benzamide], the IC50 at human P2X2/3 receptor amounted to 275 nM; on human P2X3 receptor (setting [1]), 35 nM.

Turning to `Cc1ccc(CNC(=O)c2cc(OCC3CCOCC3)cc(-c3ncc(C4CCC4)s3)c2)nn1` [Example 119, 3-(5-Cyclobutyl-1,3-thiazol-2-yl)-N-[(6-methylpyridazin-3-yl)methyl]-5-(tetrahydro-2H-pyran-4-ylmethoxy)benzamide], the IC50 was determined as 190 nM on human P2X2/3 receptor and 24 nM at human P2X3 receptor (setting [1]).

With `CCOC(=O)N1CC[C@H](Oc2cc(C(=O)N[C@H](C)c3cnc(C(F)(F)F)nc3)cc(-c3ncc(C)s3)c2)C1` [Example 228, Ethyl (3S)-3-[3-(5-methyl-1,3-thiazol-2-yl)-5-({(1R)-1-[2-(trifluoromethyl)pyrimidin-5-yl]ethyl}carbamoyl)phenoxy]pyrrolidine-1-carboxylate], the IC50 is 54 nM on human P2X2/3 receptor and 5 nM at human P2X3 receptor (setting [1]).

With `Cc1ccc(CNC(=O)c2cc(OC[C@H]3CCCO3)cc(-c3ncc(C)s3)c2)nn1` [Example 62, N-[(6-Methylpyridazin-3-yl)methyl]-3-(5-methyl-1,3-thiazol-2-yl)-5-[(2R)-tetrahydrofuran-2-ylmethoxy]benzamide], the IC50 at human P2X2/3 receptor was found to be 1440 nM; on human P2X3 receptor (setting [1]), 85 nM.

For the compound `Cc1cnc(-c2cc(O[C@@H]3CCOC3)cc(C(=O)N[C@H](C)c3ccc(C(F)(F)F)nn3)c2)s1` [Example 19, 3-(5-Methyl-1,3-thiazol-2-yl)-5-[(3R)-tetrahydrofuran-3-yloxy]-N-{(1R)-1-[6-(trifluoromethyl)pyridazin-3-yl]ethyl}benzamide], the IC50 at human P2X2/3 receptor is 749 nM; at human P2X3 receptor (setting [1]), 19 nM.

For `Cc1cnc(-c2cc(OC3CCN(CC(F)(F)F)CC3)cc(C(=O)N[C@H](C)c3ccc(C(F)(F)F)nn3)c2)s1` [Example 312, 3-(5-methyl-1,3-thiazol-2-yl)-5-{[1-(2,2,2-trifluoroethyl)piperidin-4-yl]oxy}-N-{(1R)-1-[6-(trifluoromethyl)pyridazin-3-yl]ethyl}benzamide], the IC50 was 83 nM on human P2X2/3 receptor and 9 nM on human P2X3 receptor (setting [1]).

Regarding `Cc1cnc(CNC(=O)c2cc(O[C@@H]3CCOC3)cc(-c3ncc(C)s3)c2)cn1` [Example 12, N-[(5-methylpyrazin-2-yl)methyl]-3-(5-methyl-1,3-thiazol-2-yl)-5-[(3R)-tetrahydrofuran-3-yloxy]benzamide], the values for the IC50 at human P2X2/3 receptor and at human P2X3 receptor were no less than 10000 nM and 283 nM, respectively.

For the origin of these results see patent US10174016B2 (BAYER AKTIENGESELLSCHAFT, priority 2014, dated 2019).
